Assay results taken from publication PMC12406685, “Thiazole substitution of a labile amide bond—a new option toward antiplasmodial pantothenamide-mimics” (Antimicrobial Agents and Chemotherapy, 2025).

Test system: PfPanK
Assay: [14C]pantothenate phosphorylation assay in P. falciparum lysates (Somogyi reagent)
Format: biochemical
Settings: PfPanK versus HsPanK3 selectivity
Method: Parasite lysates were prepared from saponin-isolated mature trophozoite-stage parasites as described by Saliba et al. ([14]), with modifications. Briefly, a culture with predominantly trophozoite stage parasites was thoroughly mixed with saponin (0.05% [wt/vol] final concentration) and centrifuged at 2,000 × g for 8 min at 4°C. The pelleted parasites were then transferred to a 1.5 mL tube and washed three times (16,000 × g, 1 min each time) with cold malaria saline (125 mM NaCl, 5 mM KCl, 25 mM HEPES, 20 mM glucose, 1 mM MgCl2, pH 7.1). Subsequently, washed saponin-isolated parasites were suspended in 1 mL of 10 mM Tris/Cl, pH 7.4, followed by trituration (10 times) through a SafetyGlide injection needle (25-gauge). The lysates were then centrifuged at 16,000 × g for 30 min at 4°C, and the supernatant was transferred to a new tube. The concentration of the lysates was then determined using the Bradford reagent.
Phosphorylation of [^14C]pantothenate was determined using a combination of zinc sulphate (ZnSO4) and barium hydroxide (Ba(OH)2) (Somogyi reagent) as previously described ([78]). In the 125 min time course, each reaction (650 µL) contained a final concentration of 50 mM Tris-Cl (pH 7.4), 5 mM ATP, 5 mM MgCl2, 2 µM (0.1 µCi/mL) [^14C]pantothenate, and 60 µg of total parasite lysate. The compounds were added at their 10× antiplasmodial IC50 values or at various concentrations to generate dose–response curves. Mixtures were incubated at 37°C throughout the experiment, and reactions were initiated by the addition of the lysates. A reaction with identical components to the test reactions but lacking the parasite lysate was prepared to serve as a no-phosphorylation negative control, and a reaction with DMSO vehicle control (0.2% vol/vol) served as a positive control. At pre-determined time points, 50 µL of the reaction mixture was transferred in triplicate to wells of a 96-well filter plate with 0.2 µm hydrophilic polyvinylidene fluoride (PVDF) membrane filter (Corning), which had been pre-loaded with 50 µL of 150 mM Ba(OH)2. The reaction mixtures were thoroughly mixed with the Ba(OH)2 in the wells to precipitate the enzyme and terminate the phosphorylation reaction. After all reactions had been terminated, phosphorylated compounds in each well were precipitated by the addition of 50 µL of 150 mM ZnSO4 to generate the Somogyi reagent. The plate was then washed twice with deionized H2O and once with 95% (vol/vol) ethanol using a vacuum manifold to remove the non-phosphorylated [^14C]pantothenate and was subsequently dried overnight at 37°C in a non-humidified incubator. The following day, 30 µL of Microscint-O (PerkinElmer) was added to each well, and the plate was sealed on the top and bottom with TopSeal-A Plus sealing film (PerkinElmer). A Packard Microplate Scintillation and Luminescence Counter was used to measure the radioactivity in each well immediately after the plate had been sealed. To determine the total radioactivity in each phosphorylation assay, 50 µL of each reaction mixture was added to the wells of an OptiPlate-96 microplate (PerkinElmer) in triplicate and was then thoroughly mixed with 150 µL of Microscint-40 (PerkinElmer), and the radioactivity was measured in the same manner. Phosphorylation of [^14C]pantothenate, calculated as a percentage of the radioactivity measured in the test wells relative to the total radioactivity in the phosphorylation assay, was then plotted against the reaction time. Each data set was analyzed by linear regression, from which the phosphorylation rate of each reaction was then determined and expressed as a percentage of the phosphorylation rate of the DMSO-positive control reaction.

## CC(C)(CO)[C@@H](O)C(=O)NCc1csc(-c2ccccc2)n1 [Compound 2e]
  Fold by which IC50 at inhibiting PfPanK-mediated pantothenate phosphorylation is lower than Km observed for HsPanK3: 120 fold
